Here are results for four compounds from PMC11342346 (ACS Bio & Med Chem Au, 2024).

*1 amine or outer side, *2 acyl side, *3 side chain or, on linkers, in order; H or OH if unused. Where a SMILES comes first, the peptide text is derived from it. Bridges are numbered along the chain shown (N, C = ends). Roman numbers before positions name the chains, in order. Where no end group is shown, it is not given here. The star is where a group is joined. CO(CH2CH2O)5CH2CH2CO = O=C(CCOCCOCCOCCOCCOCCC(=O)[*:2])[*:1]; PEG12 = NCCOCCOCCOCCOCCOCCOCCOCCOCCOCCOCCOCCOCCC(=O)O; Biotin = O=C1N[C@H]2[C@H](CS[C@H]2CCCCC(=O)*)N1; PEG2 = NCCOCCOCCC(=O)O

The test system of experiment [1] is Wnt signaling in HEK293 TOPbrite (TB) luciferase reporter cells. Type of experiment: cell-based. The conditions noted are these: three independent runs.
Experiment [2] has as its system Ring Finger Protein 43 (RNF43). The class given is binding. The note with it: SPR, DCP immobilized on streptavidin sensor, RNF43 as analyte.
Experiment [3] addresses biotin-PEG2-MK1-3.6.10S. Put plainly: SPR.
Experiment [4] concerns the target biotin-PEG12-MK1-3.6.10S. Put plainly: SPR.

human ZNRF3 (free, in solution), sequence (Q9ULT6 56-936): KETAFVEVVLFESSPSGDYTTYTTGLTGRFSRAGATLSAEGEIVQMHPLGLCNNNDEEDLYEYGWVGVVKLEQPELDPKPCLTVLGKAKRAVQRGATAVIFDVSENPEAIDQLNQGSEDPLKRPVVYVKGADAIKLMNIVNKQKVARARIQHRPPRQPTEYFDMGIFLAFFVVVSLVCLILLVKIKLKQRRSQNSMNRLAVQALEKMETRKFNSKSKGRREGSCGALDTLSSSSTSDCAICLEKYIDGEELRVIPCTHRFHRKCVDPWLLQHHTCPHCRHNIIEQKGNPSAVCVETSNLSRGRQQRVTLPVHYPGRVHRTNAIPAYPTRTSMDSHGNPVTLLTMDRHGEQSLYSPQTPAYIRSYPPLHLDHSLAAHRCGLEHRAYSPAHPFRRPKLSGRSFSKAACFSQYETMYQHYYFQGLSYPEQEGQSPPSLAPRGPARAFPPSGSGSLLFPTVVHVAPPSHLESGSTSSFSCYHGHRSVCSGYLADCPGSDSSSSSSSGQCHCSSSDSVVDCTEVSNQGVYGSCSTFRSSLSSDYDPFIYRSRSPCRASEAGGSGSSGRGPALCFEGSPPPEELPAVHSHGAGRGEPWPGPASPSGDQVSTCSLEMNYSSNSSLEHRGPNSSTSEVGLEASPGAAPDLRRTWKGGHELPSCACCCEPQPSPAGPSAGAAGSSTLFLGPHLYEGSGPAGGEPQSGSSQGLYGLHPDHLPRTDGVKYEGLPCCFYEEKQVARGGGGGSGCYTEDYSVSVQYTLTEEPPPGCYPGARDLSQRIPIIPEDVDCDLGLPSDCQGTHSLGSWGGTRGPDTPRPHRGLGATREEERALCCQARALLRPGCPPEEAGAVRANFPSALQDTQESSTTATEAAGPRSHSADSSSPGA

As to “I: SCNRLNKKCNSDADCCANKEKCERPIGWKFMYCRPDVGP / II: SCNRLNKKCNSDADCCANKEKCERPIGWKFMYCRPDVGP (disulfide I:2-I:16, I:9-I:22, I:15-I:33, II:2-II:16, II:9-II:22, II:15-II:33; linker I:N-II:N via CO(CH2CH2O)5CH2CH2CO) [di-MK1-3.6.10S]”, in experiment [1], the “activation of Wnt signaling in reporter assay (in words)” value is recorded as “able to induce Wnt signaling activation to a similar extent to the synthetic MK1-3.6.10 dimer”. As to `CC[C@H](C)[C@@H]1NC(=O)[C@@H]2CCCN2C(=O)[C@H](CCCNC(=N)N)NC(=O)[C@H](CCC(=O)O)NC(=O)[C@@H]2CSSC[C@@H]3NC(=O)[C@H](CCCCN)NC(=O)[C@H](CCCCN)NC(=O)[C@H](CC(N)=O)NC(=O)[C@H](CC(C)C)NC(=O)[C@H](CCCNC(=N)N)NC(=O)[C@H](CC(N)=O)NC(=O)[C@@H](NC(=O)[C@H](CO)NC(=O)CCOCCOCCNC(=O)CCCC[C@@H]4SC[C@@H]5NC(=O)N[C@@H]54)CSSC[C@H](NC(=O)[C@H](CSSC[C@@H](C(=O)N[C@@H](CCCNC(=N)N)C(=O)N4CCC[C@H]4C(=O)N[C@@H](CC(=O)O)C(=O)N[C@H](C(=O)NCC(=O)N4CCC[C@H]4C(=O)O)C(C)C)NC(=O)[C@H](Cc4ccc(O)cc4)NC(=O)[C@H](CCSC)NC(=O)[C@H](Cc4ccccc4)NC(=O)[C@H](CCCCN)NC(=O)[C@H](Cc4c[nH]c5ccccc45)NC(=O)CNC1=O)NC(=O)[C@H](CC(=O)O)NC(=O)[C@H](C)NC(=O)[C@H](CC(=O)O)NC(=O)[C@H](CO)NC(=O)[C@H](CC(N)=O)NC3=O)C(=O)N[C@@H](C)C(=O)N[C@@H](CC(N)=O)C(=O)N[C@@H](CCCCN)C(=O)N[C@@H](CCC(=O)O)C(=O)N[C@@H](CCCCN)C(=O)N2` [biotin-PEG2-MK1-3.6.10S] ({Biotin-PEG2}-SCNRLNKKCNSDADCCANKEKCERPIGWKFMYCRPDVGP-OH; disulfide 2-16, 9-22, 15-33; C-terminus assumed), in experiment [2], the “binding to RNF43” value was “did not bind”. Same read-out and setting: the entry for `CC[C@H](C)[C@@H]1NC(=O)[C@@H]2CCCN2C(=O)[C@H](CCCNC(=N)N)NC(=O)[C@H](CCC(=O)O)NC(=O)[C@@H]2CSSC[C@@H]3NC(=O)[C@H](CCCCN)NC(=O)[C@H](CCCCN)NC(=O)[C@H](CC(N)=O)NC(=O)[C@H](CC(C)C)NC(=O)[C@H](CCCNC(=N)N)NC(=O)[C@H](CC(N)=O)NC(=O)[C@@H](NC(=O)[C@H](CO)NC(=O)CCOCCOCCOCCOCCOCCOCCOCCOCCOCCOCCOCCOCCNC(=O)CCCC[C@@H]4SC[C@@H]5NC(=O)N[C@@H]54)CSSC[C@H](NC(=O)[C@H](CSSC[C@@H](C(=O)N[C@@H](CCCNC(=N)N)C(=O)N4CCC[C@H]4C(=O)N[C@@H](CC(=O)O)C(=O)N[C@H](C(=O)NCC(=O)N4CCC[C@H]4C(=O)O)C(C)C)NC(=O)[C@H](Cc4ccc(O)cc4)NC(=O)[C@H](CCSC)NC(=O)[C@H](Cc4ccccc4)NC(=O)[C@H](CCCCN)NC(=O)[C@H](Cc4c[nH]c5ccccc45)NC(=O)CNC1=O)NC(=O)[C@H](CC(=O)O)NC(=O)[C@H](C)NC(=O)[C@H](CC(=O)O)NC(=O)[C@H](CO)NC(=O)[C@H](CC(N)=O)NC3=O)C(=O)N[C@@H](C)C(=O)N[C@@H](CC(N)=O)C(=O)N[C@@H](CCCCN)C(=O)N[C@@H](CCC(=O)O)C(=O)N[C@@H](CCCCN)C(=O)N2` [biotin-PEG12-MK1-3.6.10S] ({Biotin-PEG12}-SCNRLNKKCNSDADCCANKEKCERPIGWKFMYCRPDVGP-OH; disulfide 2-16, 9-22, 15-33; C-terminus assumed) is “did not bind”. Turning to “human ZNRF3 (free, in solution) (from UniProt Q9ULT6 56-936) (natural protein)”, the Kd in experiment [3] worked out at 149 nM; in experiment [4] it was 118 nM.
